Laboratory results taken from ChEMBL document CHEMBL2406981, “Novel pyrazoline amidoxime and their 1,2,4-oxadiazole analogues: synthesis and pharmacological screening” (Bioorg Med Chem Lett, 2013).
Converted amounts (≈) assume the structure as drawn.

What was measured:
Klebsiella pneumoniae [1] = assay: Antimicrobial activity against Klebsiella pneumoniae MTCC 3384; format: functional
Bacillus cereus [2] = assay: Antimicrobial activity against Bacillus cereus MTCC 8372; format: functional
[3] = Antioxidant activity assessed as reducing power of ferric ion at 10 ug/ml after 20 mins; format: functional; parameters: scale not given: the % may be the effect or the level left
Klebsiella pneumoniae [4] = assay: Antimicrobial activity against Klebsiella pneumoniae MTCC 3384 at 100 ug/ml after 24 hrs by agar disc diffusion method; format: functional; conditions: MTCC 3384, 24 h, read-out: DIZ
Shigella flexneri [5] = assay: Antimicrobial activity against Shigella flexneri MTCC 1457 at 50 ug/ml after 24 hrs by agar disc diffusion method; format: functional; conditions: MTCC 1457, 24 h, read-out: DIZ
Aspergillus niger [6] = assay: Antimicrobial activity against Aspergillus niger MTCC 281; format: functional
[7] = Antioxidant activity against ferric chloride-induced lipid peroxidation using egg lecithin at 10 ug/ml after 1 hr; format: functional
Shigella flexneri [8] = assay: Antimicrobial activity against Shigella flexneri MTCC 1457 at 100 ug/ml after 24 hrs by agar disc diffusion method; format: functional; conditions: MTCC 1457, 24 h, read-out: DIZ
Aspergillus niger [9] = assay: Antimicrobial activity against Aspergillus niger MTCC 281 at 50 ug/ml after 24 hrs by agar disc diffusion method; format: functional; conditions: MTCC 281, 24 h, read-out: DIZ
Bacillus cereus [10] = assay: Antimicrobial activity against Bacillus cereus MTCC 8372 at 50 ug/ml after 24 hrs by agar disc diffusion method; format: functional; conditions: MTCC 8372, 24 h, read-out: DIZ
Aspergillus flavus [11] = assay: Antimicrobial activity against Aspergillus flavus MTCC 873 at 100 ug/ml after 24 hrs by agar disc diffusion method; format: functional; conditions: MTCC 873, 24 h, read-out: DIZ
Staphylococcus aureus [12] = assay: Antimicrobial activity against Staphylococcus aureus MTCC 96 at 50 ug/ml after 24 hrs by agar disc diffusion method; format: functional; conditions: MTCC 96, 24 h, read-out: DIZ
Shigella flexneri [13] = assay: Antimicrobial activity against Shigella flexneri MTCC 1457; format: functional
[14] = tested on: Radical scavenging activity; assay: Antioxidant activity assessed as DPPH free radical scavenging activity at 50 ug/ml after 20 mins; format: functional
Escherichia coli [15] = assay: Antimicrobial activity against Escherichia coli MTCC 724; format: functional
[16] = Ratio of vitamin-E to compound for ferric chloride-induced lipid peroxidation; format: physicochemical
Aspergillus niger [17] = assay: Antimicrobial activity against Aspergillus niger MTCC 281 at 100 ug/ml after 24 hrs by agar disc diffusion method; format: functional; conditions: MTCC 281, 24 h, read-out: DIZ
Staphylococcus aureus [18] = assay: Antimicrobial activity against Staphylococcus aureus MTCC 96; format: functional
Escherichia coli [19] = assay: Antimicrobial activity against Escherichia coli MTCC 724 at 100 ug/ml after 24 hrs by agar disc diffusion method; format: functional; conditions: MTCC 724, 24 h, read-out: DIZ
[20] = Antioxidant activity assessed as reducing power of ferric ion at 100 ug/ml after 20 mins; format: functional; parameters: scale not given: the % may be the effect or the level left
Staphylococcus aureus [21] = assay: Antimicrobial activity against Staphylococcus aureus MTCC 96 at 100 ug/ml after 24 hrs by agar disc diffusion method; format: functional; conditions: MTCC 96, 24 h, read-out: DIZ
Aspergillus flavus [22] = assay: Antimicrobial activity against Aspergillus flavus MTCC 873; format: functional
[23] = Antioxidant activity against ferric chloride-induced lipid peroxidation using egg lecithin at 50 ug/ml after 1 hr; format: functional
Klebsiella pneumoniae [24] = assay: Antimicrobial activity against Klebsiella pneumoniae MTCC 3384 at 50 ug/ml after 24 hrs by agar disc diffusion method; format: functional; conditions: MTCC 3384, 24 h, read-out: DIZ
Aspergillus flavus [25] = assay: Antimicrobial activity against Aspergillus flavus MTCC 873 at 50 ug/ml after 24 hrs by agar disc diffusion method; format: functional; conditions: MTCC 873, 24 h, read-out: DIZ
[26] = tested on: Radical scavenging activity; assay: Antioxidant activity assessed as DPPH free radical scavenging activity at 10 ug/ml after 20 mins; format: functional
[27] = Antiinflammatory activity against heat-induced albumin denaturation at […] preincubated for 15 mins before heat induction by UV-vis spectrophotometer analysis; format: functional
[28] = Antioxidant activity assessed as reducing power of ferric ion at 50 ug/ml after 20 mins; format: functional; parameters: scale not given: the % may be the effect or the level left
Bacillus cereus [29] = assay: Antimicrobial activity against Bacillus cereus MTCC 8372 at 100 ug/ml after 24 hrs by agar disc diffusion method; format: functional; conditions: MTCC 8372, 24 h, read-out: DIZ
[30] = tested on: Radical scavenging activity; assay: Antioxidant activity assessed as DPPH free radical scavenging activity at 100 ug/ml after 20 mins; format: functional
[31] = Antioxidant activity against ferric chloride-induced lipid peroxidation using egg lecithin at 100 ug/ml after 1 hr; format: functional
Escherichia coli [32] = assay: Antimicrobial activity against Escherichia coli MTCC 724 at 50 ug/ml after 24 hrs by agar disc diffusion method; format: functional; conditions: MTCC 724, 24 h, read-out: DIZ
[33] = Antioxidant activity against ferric chloride-induced lipid peroxidation using egg lecithin at 0.5 ug/ml after 1 hr; format: functional
[34] = Antioxidant activity against ferric chloride-induced lipid peroxidation using egg lecithin at 5 ug/ml after 1 hr; format: functional
[35] = Antioxidant activity against ferric chloride-induced lipid peroxidation using egg lecithin at 0.05 ug/ml after 1 hr; format: functional
[36] = Antioxidant activity against ferric chloride-induced lipid peroxidation using egg lecithin at 0.1 ug/ml after 1 hr; format: functional
[37] = Antioxidant activity against ferric chloride-induced lipid peroxidation using egg lecithin at 0.25 ug/ml after 1 hr; format: functional
[38] = Antioxidant activity against ferric chloride-induced lipid peroxidation using egg lecithin at 0.75 ug/ml after 1 hr; format: functional
[39] = Antioxidant activity against ferric chloride-induced lipid peroxidation using egg lecithin at 1 ug/ml after 1 hr; format: functional
[40] = Antioxidant activity against ferric chloride-induced lipid peroxidation using egg lecithin at 2.5 ug/ml after 1 hr; format: functional
[41] = Antioxidant activity against ferric chloride-induced lipid peroxidation using egg lecithin at 0.01 ug/ml after 1 hr; format: functional

N/C(=N\O)C1CC(c2ccc(O)cc2)=NN1c1ccccc1 (stereo not given) showed an MIC (Klebsiella pneumoniae [1]) of 20 µg/mL (≈ 67.5 µM), an MIC (Bacillus cereus [2]) of 40 µg/mL (≈ 135 µM) and an Activity [3] of 12%. The zone of inhibition at 100 µg/mL (Klebsiella pneumoniae [4]) was 12 mm, the zone of inhibition at 50 µg/mL (Shigella flexneri [5]) was 12 mm and the MIC (Aspergillus niger [6]) was 15 µg/mL (≈ 50.6 µM). The inhibition [7] was 12%, the zone of inhibition at 100 µg/mL (Shigella flexneri [8]) was 20 mm and the zone of inhibition at 50 µg/mL (Aspergillus niger [9]) was 10 mm. It also gave a zone of inhibition at 50 µg/mL (Bacillus cereus [10]) of 3 mm, a zone of inhibition at 100 µg/mL (Aspergillus flavus [11]) of 12 mm and a zone of inhibition at 50 µg/mL (Staphylococcus aureus [12]) of 2 mm. The MIC (Shigella flexneri [13]) was 10 µg/mL (≈ 33.7 µM), the Activity [14] was 41% and the MIC (Escherichia coli [15]) was 15 µg/mL (≈ 50.6 µM). For the same compound, the Ratio [16] was 3, the zone of inhibition at 100 µg/mL (Aspergillus niger [17]) was 14 mm and the MIC (Staphylococcus aureus [18]) was 50 µg/mL (≈ 169 µM). It also gave a zone of inhibition at 100 µg/mL (Escherichia coli [19]) of 16 mm, an Activity [20] of 79% and a zone of inhibition at 100 µg/mL (Staphylococcus aureus [21]) of 8 mm. The MIC (Aspergillus flavus [22]) was 35 µg/mL (≈ 118 µM), the inhibition [23] was 18% and the zone of inhibition at 50 µg/mL (Klebsiella pneumoniae [24]) was 8 mm. The zone of inhibition at 50 µg/mL (Aspergillus flavus [25]) was 5 mm, the Activity [26] was 24% and the inhibition [27] was 63.5%. For the same compound, the Activity [28] was 34%, the zone of inhibition at 100 µg/mL (Bacillus cereus [29]) was 3 mm and the Activity [30] was 76%. For the same compound, the inhibition [31] was 20% and the zone of inhibition at 50 µg/mL (Escherichia coli [32]) was 10 mm.

VITAMIN E gave an inhibition [33] of 6%, an inhibition [34] of 26% and an inhibition [35] of 2%. It also gave an inhibition [7] of 47%, an inhibition [36] of 3.4% and an inhibition [37] of 4.1%. The inhibition [38] was 7.7%, the inhibition [39] was 9.3% and the inhibition [40] was 17%. The inhibition [23] was 62%, the inhibition [41] was 1.2% and the inhibition [31] was 92%.

N/C(=N\O)C1CC(c2ccccc2)=NN1c1ccccc1 (stereo not given) showed an MIC (Klebsiella pneumoniae [1]) of 40 µg/mL (≈ 143 µM), an MIC (Bacillus cereus [2]) of 50 µg/mL (≈ 178 µM) and an Activity [3] of 8%. For the same compound, the inhibition [33] was 8.2%, the zone of inhibition at 100 µg/mL (Klebsiella pneumoniae [4]) was 8 mm and the inhibition [34] was 21%. The zone of inhibition at 50 µg/mL (Shigella flexneri [5]) was 3 mm, the inhibition [35] was 1.3% and the MIC (Aspergillus niger [6]) was 50 µg/mL (≈ 178 µM). The inhibition [7] was 32%, the zone of inhibition at 100 µg/mL (Shigella flexneri [8]) was 10 mm and the inhibition [36] was 8.4%. The zone of inhibition at 50 µg/mL (Aspergillus niger [9]) was 2 mm, the zone of inhibition at 50 µg/mL (Bacillus cereus [10]) was 2 mm and the inhibition [37] was 8%. The zone of inhibition at 100 µg/mL (Aspergillus flavus [11]) was 4 mm, the zone of inhibition at 50 µg/mL (Staphylococcus aureus [12]) was 3 mm and the MIC (Shigella flexneri [13]) was 40 µg/mL (≈ 143 µM). For the same compound, the inhibition [38] was 8.5%, the Activity [14] was 28% and the MIC (Escherichia coli [15]) was 50 µg/mL (≈ 178 µM). It also gave an inhibition [39] of 9.5%, a zone of inhibition at 100 µg/mL (Aspergillus niger [17]) of 3 mm and an MIC (Staphylococcus aureus [18]) of 40 µg/mL (≈ 143 µM). It also gave a zone of inhibition at 100 µg/mL (Escherichia coli [19]) of 7 mm, an Activity [20] of 56% and an inhibition [40] of 14.7%. The zone of inhibition at 100 µg/mL (Staphylococcus aureus [21]) was 6 mm, the MIC (Aspergillus flavus [22]) was 30 µg/mL (≈ 107 µM) and the inhibition [23] was 15%. It also gave a zone of inhibition at 50 µg/mL (Klebsiella pneumoniae [24]) of 2 mm, a zone of inhibition at 50 µg/mL (Aspergillus flavus [25]) of 4 mm and an Activity [26] of 16%. It also gave an inhibition [27] of 61.7%, an Activity [28] of 12% and an inhibition [41] of 0.7%. It also gave a zone of inhibition at 100 µg/mL (Bacillus cereus [29]) of 3 mm, an Activity [30] of 51% and an inhibition [31] of 14%. The zone of inhibition at 50 µg/mL (Escherichia coli [32]) was 2 mm.

For COc1ccccc1-c1nc(C2CC(c3ccc(Cl)cc3)=NN2c2ccccc2)no1 (stereo not given), the MIC (Klebsiella pneumoniae [1]) was 25 µg/mL (≈ 58 µM), the MIC (Bacillus cereus [2]) was 35 µg/mL (≈ 81.2 µM) and the Activity [3] was 12%. It also gave a zone of inhibition at 100 µg/mL (Klebsiella pneumoniae [4]) of 8 mm, a zone of inhibition at 50 µg/mL (Shigella flexneri [5]) of 6 mm and an MIC (Aspergillus niger [6]) of 15 µg/mL (≈ 34.8 µM). For the same compound, the inhibition [7] was 21%, the zone of inhibition at 100 µg/mL (Shigella flexneri [8]) was 8 mm and the zone of inhibition at 50 µg/mL (Aspergillus niger [9]) was 10 mm. It also gave a zone of inhibition at 50 µg/mL (Bacillus cereus [10]) of 4 mm, a zone of inhibition at 100 µg/mL (Aspergillus flavus [11]) of 10 mm and a zone of inhibition at 50 µg/mL (Staphylococcus aureus [12]) of 5 mm. The MIC (Shigella flexneri [13]) was 25 µg/mL (≈ 58 µM), the Activity [14] was 30% and the MIC (Escherichia coli [15]) was 35 µg/mL (≈ 81.2 µM). It also gave a zone of inhibition at 100 µg/mL (Aspergillus niger [17]) of 20 mm, an MIC (Staphylococcus aureus [18]) of 30 µg/mL (≈ 69.6 µM) and a zone of inhibition at 100 µg/mL (Escherichia coli [19]) of 8 mm. The Activity [20] was 68%, the zone of inhibition at 100 µg/mL (Staphylococcus aureus [21]) was 10 mm and the MIC (Aspergillus flavus [22]) was 15 µg/mL (≈ 34.8 µM). It also gave an inhibition [23] of 38%, a zone of inhibition at 50 µg/mL (Klebsiella pneumoniae [24]) of 6 mm and a zone of inhibition at 50 µg/mL (Aspergillus flavus [25]) of 9 mm. The Activity [26] was 24%, the inhibition [27] was 56.8% and the Activity [28] was 23%. The zone of inhibition at 100 µg/mL (Bacillus cereus [29]) was 8 mm, the Activity [30] was 64% and the inhibition [31] was 67%. For the same compound, the zone of inhibition at 50 µg/mL (Escherichia coli [32]) was 4 mm.
